Pest or weed control data for 18 compounds are collected here from patent publication US7473669B2, “Substituted 4,5-dihydro-1,2,4-triazin-6-ones, 1,2,4-triazin-6-ones, and their use as fungicides” (priority 2005, dated 2009).

Assay type in all cases: in vivo
In one experiment the test system is Phytophthora infestans. The experiment in a line: whole plant or invertebrate. The settings on record: in Solanum lycopersicum, 24 h, read-out: PHYTIN percent control rating, tomato plants, one-day protectant test, 200 ppm application rate.
The test system of another experiment is Erysiphe cichoracaerum. The experiment in a line: Cucumber Powdery Mildew greenhouse one-day protectant test. The note with it: 24 h, cucumber plants, one-day protectant test, 200 ppm application rate, read-out: ERYSCI percent control rating.
The subject of a further experiment is Pyricularia oryzae. Put plainly: whole plant or invertebrate. The note with it: 24 h, read-out: PYRIOR percent control rating.
Another experiment has as its system Colletotricum lagenarium. The experiment in a line: Cucumber Anthracnose greenhouse one-day protectant test. The note with it: Cucumis sativus, 24 h, cucumber plants, one-day protectant test, 200 ppm application rate; read-out: COLLLA percent control rating.
The test system of experiment [1] is Puccinia recondita tritici. The experiment in a line: Leaf Rust of Wheat greenhouse one-day protectant test. The note with it: 24 h, wheat plants, one-day protectant test, 200 ppm application rate, read-out: PUCCRT percent control rating.
The subject of the next experiment is Leptosphaeria nodorum. Put plainly: Glume Blotch of Wheat greenhouse one-day protectant test. The note with it: Parastagonospora nodorum, 24 h; wheat plants, one-day protectant test, 200 ppm application rate; read-out: LEPTNO percent control rating.

Molecules are shown by their SMILES.

As for `O=C1CNC(c2cc(Cl)cc(Cl)c2)=NN1Cc1c(F)c(F)c(F)c(F)c1F` [Compound 65], the pest or weed control at 200 ppm in the experiment on Phytophthora infestans was 0 to 49%; in the experiment with Erysiphe cichoracaerum it was 0 to 49%; with Pyricularia oryzae, 50 to 79%; in the experiment on Colletotricum lagenarium, 80 to 100%; in experiment [1] it was 0 to 49%; with Leptosphaeria nodorum, 80 to 100%.

`O=C1CNC(c2cc(Cl)cc(Cl)c2)=NN1CCOc1ccccc1` [Compound 66]: the pest or weed control at 200 ppm in the experiment with Phytophthora infestans lay in the range of 0 to 49%; in the experiment on Erysiphe cichoracaerum, 0 to 49%; in the experiment on Pyricularia oryzae it was 80 to 100%; in the experiment with Colletotricum lagenarium, 80 to 100%; in experiment [1], 80 to 100%; in the experiment on Leptosphaeria nodorum it was 80 to 100%.

Turning to `O=C1CNC(c2cc(Br)cc(-c3ccsc3)c2)=NN1Cc1ccccc1` [Compound 68], the pest or weed control at 200 ppm in the experiment with Phytophthora infestans was 0 to 49%; in the experiment on Erysiphe cichoracaerum, 0 to 49%; with Pyricularia oryzae, 80 to 100%; with Colletotricum lagenarium it was 0 to 49%; in experiment [1] it was 0 to 49%; in the experiment with Leptosphaeria nodorum it was 80 to 100%.

With `O=C1CNC(c2cc(Br)cc(-c3ccsc3)c2)=NN1CCc1ccccc1` [Compound 69], the pest or weed control at 200 ppm with Phytophthora infestans fell in the range of 0 to 49%; with Erysiphe cichoracaerum it was 0 to 49%; in the experiment on Pyricularia oryzae, 50 to 79%; in the experiment on Colletotricum lagenarium, 0 to 49%; in experiment [1], 0 to 49%; in the experiment with Leptosphaeria nodorum, 50 to 79%.

Consider `O=C1CNC(c2cccc(C#Cc3ccccc3)c2)=NN1CC(F)(F)F` [Compound 70], for which the pest or weed control at 200 ppm in the experiment on Phytophthora infestans was in the range of 0 to 49%; with Erysiphe cichoracaerum, 0 to 49%; in the experiment on Pyricularia oryzae, 80 to 100%; in the experiment on Colletotricum lagenarium, 0 to 49%; in experiment [1] it was 0 to 49%; in the experiment on Leptosphaeria nodorum it was 0 to 49%.

For the compound `O=C1CNC(c2cccc(/C=C\c3ccccc3)c2)=NN1CC(F)(F)F` [Compound 71], the pest or weed control at 200 ppm with Phytophthora infestans is 0 to 49%; with Erysiphe cichoracaerum, 0 to 49%; in the experiment on Pyricularia oryzae it was 50 to 79%; with Colletotricum lagenarium it was 0 to 49%; in experiment [1], 50 to 79%; with Leptosphaeria nodorum, 80 to 100%.

For the compound `O=C1CNC(c2cccc(/C=C3/CCc4ccccc43)c2)=NN1CC(F)(F)F` [Compound 72], the pest or weed control at 200 ppm with Phytophthora infestans is 0 to 49%; in the experiment with Erysiphe cichoracaerum, 0 to 49%; in the experiment with Pyricularia oryzae, 80 to 100%; in the experiment on Colletotricum lagenarium, 0 to 49%; in experiment [1], 80 to 100%; in the experiment on Leptosphaeria nodorum, 80 to 100%.

As for `O=C1CNC(c2cccc(C(=NOCc3ccccc3)c3ccccc3)c2)=NN1CC(F)(F)F` [Compound 76], the pest or weed control at 200 ppm in the experiment with Phytophthora infestans was 0 to 49%; in the experiment on Erysiphe cichoracaerum it was 0 to 49%; in the experiment on Pyricularia oryzae, 80 to 100%; in the experiment on Colletotricum lagenarium, 0 to 49%; in experiment [1], 50 to 79%; in the experiment on Leptosphaeria nodorum, 50 to 79%.

As to `O=c1cnc(-c2ccc(N3CCOCC3)cc2)nn1CC(F)(F)F` [Compound 77], the pest or weed control at 200 ppm with Phytophthora infestans lay within 50 to 79%; in the experiment on Erysiphe cichoracaerum, 50 to 79%; in the experiment on Pyricularia oryzae, 80 to 100%; in the experiment on Colletotricum lagenarium it was 80 to 100%; in experiment [1] it was 0 to 49%; in the experiment with Leptosphaeria nodorum, 50 to 79%.

For `O=c1cnc(-c2ccc(Oc3cccnc3)cc2)nn1CC(F)(F)F` [Compound 78], the pest or weed control at 200 ppm with Phytophthora infestans lay in the range of 80 to 100%; in the experiment on Erysiphe cichoracaerum, 0 to 49%; in the experiment with Pyricularia oryzae, 80 to 100%; with Colletotricum lagenarium, 80 to 100%; in experiment [1], 80 to 100%; with Leptosphaeria nodorum, 50 to 79%.

For the compound `O=c1cnc(-c2csc(-c3ccccc3)c2)nn1CC(F)(F)F` [Compound 79], the pest or weed control at 200 ppm is 0 to 49% in the experiment on Phytophthora infestans; 0 to 49% in the experiment with Erysiphe cichoracaerum; 80 to 100% with Pyricularia oryzae; 50 to 79% in the experiment on Colletotricum lagenarium; 80 to 100% in experiment [1]; 80 to 100% in the experiment with Leptosphaeria nodorum.

On to `CCCCn1nc(-c2cc(-c3ccsc3)cc(-c3ccsc3)c2)ncc1=O` [Compound 81], for which the pest or weed control at 200 ppm with Phytophthora infestans was 0 to 49%; in the experiment with Erysiphe cichoracaerum it was 0 to 49%; in the experiment on Pyricularia oryzae it was 0 to 49%; in the experiment with Colletotricum lagenarium, 0 to 49%; in experiment [1] it was 0 to 49%; in the experiment on Leptosphaeria nodorum, 80 to 100%.

With `O=c1cnc(-c2cc(Br)cc(-c3ccsc3)c2)nn1Cc1ccccc1` [Compound 82], the pest or weed control at 200 ppm with Phytophthora infestans lay within 0 to 49%; in the experiment on Erysiphe cichoracaerum, 0 to 49%; in the experiment with Pyricularia oryzae it was 50 to 79%; with Colletotricum lagenarium it was 0 to 49%; in experiment [1] it was 0 to 49%; in the experiment on Leptosphaeria nodorum it was 80 to 100%.

For `O=c1cnc(-c2cc(Br)cc(-c3ccsc3)c2)nn1CCc1ccccc1` [Compound 83], the pest or weed control at 200 ppm lay within 0 to 49% in the experiment with Phytophthora infestans; 0 to 49% in the experiment on Erysiphe cichoracaerum; 0 to 49% in the experiment with Pyricularia oryzae; 0 to 49% with Colletotricum lagenarium; 0 to 49% in experiment [1]; 50 to 79% with Leptosphaeria nodorum.

Take `Cc1cc(C)cc(-c2ncc(=O)n(Cc3c(F)c(F)c(F)c(F)c3F)n2)c1` [Compound 85]: the pest or weed control at 200 ppm was 0 to 49% with Phytophthora infestans; 0 to 49% with Erysiphe cichoracaerum; 80 to 100% in the experiment on Pyricularia oryzae; 80 to 100% with Colletotricum lagenarium; 80 to 100% in experiment [1]; 80 to 100% with Leptosphaeria nodorum.

With `Cc1cc(C)cc(-c2ncc(=O)n(CCOc3ccccc3)n2)c1` [Compound 86], the pest or weed control at 200 ppm lay within 0 to 49% in the experiment on Phytophthora infestans; 0 to 49% with Erysiphe cichoracaerum; 80 to 100% in the experiment on Pyricularia oryzae; 80 to 100% in the experiment with Colletotricum lagenarium; 80 to 100% in experiment [1]; 80 to 100% with Leptosphaeria nodorum.

On to `O=c1cnc(-c2cc(Cl)cc(Cl)c2)nn1CCOc1ccccc1` [Compound 87], for which the pest or weed control at 200 ppm (in the experiment on Phytophthora infestans; with Erysiphe cichoracaerum; in the experiment on Pyricularia oryzae; in the experiment on Colletotricum lagenarium; in experiment [1]; in the experiment with Leptosphaeria nodorum) was 0 to 49% each time.

Consider `O=c1cnc(-c2ccc(-c3ccc(Cl)s3)nc2)nn1CC(F)(F)F` [Compound 88], for which the pest or weed control at 200 ppm in the experiment on Phytophthora infestans is 0 to 49%; in the experiment on Erysiphe cichoracaerum, 0 to 49%; with Pyricularia oryzae, 0 to 49%; in the experiment with Colletotricum lagenarium, 0 to 49%; in experiment [1], 0 to 49%; in the experiment with Leptosphaeria nodorum, 50 to 79%.
